Source: ChEMBL document CHEMBL5360561, “Design, synthesis and biological evaluation of fluorinated selective estrogen receptor degraders (FSERDs) --- A promising strategy for advanced ER positive breast cancer” (Eur J Med Chem, 2023)
Active and inactive are the calls of the source. The calls are words filed in the database; no cut-off is given here.

Legend:
MCF7 [1] = experiment: Antiproliferative activity against human MCF7 cells assessed as cell growth inhibition incubated for 5 days by MTT assay; format: functional, cell-based; conditions: MCF7, 120 h
Ishikawa = experiment: Antiproliferative activity against human Ishikawa cells assessed as cell growth inhibition at 20 uM incubated for 3 days by MTT assay; format: functional; conditions: for inhibition: time 3.0 day; for inhibition at 20 µM: 72 h, time 3 day
MCF7 [2] = experiment: Induction of ER degradation in human MCF7 cells at 10 uM incubated for 24 hrs by Western blot analysis; format: cell-based
MCF7 [3] = experiment: Antiproliferative activity against human MCF7 cells assessed as reduction in cell viability; format: functional, cell-based
[4] = Plasma concentration in ICR mouse at 100 mg/kg, po and measured after 0.5 hrs by LC-MS analysis; format: ADME, organism-based
MCF7 [5] = experiment: Induction of cell cycle arrest in human MCF7 cells assessed as accumulation at G0/G1 phase at 10 uM incubated for 24 hrs by flow cytometry (Rvb= 46.53 +/- 0.44%); format: functional
MCF7 [6] = experiment: Antitumor activity against human MCF7 cells xenografted in nude mouse assessed as tumor growth inhibition at 10 mg/kg,po for 30 days; format: functional, organism-based; conditions: time 30.0 day
MCF7 [7] = experiment: Induction of ER degradation in human MCF7 cells at 0.001 to 10 uM incubated for 24 hrs by Western blot analysis; format: cell-based; conditions: dose 0.001-10 µM
MCF7 [8] = experiment: Induction of ER degradation in human MCF7 cells at 10 uM incubated for 24 hrs by DAPI staining based immunofluorescence analysis; format: cell-based
MCF7 [9] = experiment: Induction of ER degradation in Estradiol stimulated human MCF7 cells assessed as decrease in GREB1 mRNA expression level at 1 to 10 uM incubated for 24 hrs by RT-qPCR analysis; format: cell-based; conditions: dose 1-10 µM
MCF7 [10] = experiment: Induction of ER degradation in Estradiol stimulated human MCF7 cells assessed as decrease in PGR gene expression level at 1 to 10 uM incubated for 24 hrs by RT-qPCR analysis; format: cell-based; conditions: dose 1-10 µM
MCF7 [11] = experiment: Induction of ER degradation in Estradiol stimulated human MCF7 cells assessed as decrease in TFF1 gene expression level at 1 to 10 uM incubated for 24 hrs by RT-qPCR analysis; format: cell-based; conditions: dose 1-10 µM
MCF7 [12] = experiment: Induction of ER degradation in human MCF7 cells transfected with ERE-luciferase plasmid assessed as decrease in estradiol induced ERE-luciferase activity by measuring luminescence at 10 uM incubated for 24 hrs by luciferase assay; format: cell-based
MCF7 [13] = experiment: Antitumor activity against human MCF7 cells xenografted in nude mouse assessed as tumor growth inhibition at 30 mg/kg,po for 30 days daily; format: functional, organism-based; conditions: time 30.0 day
[14] = Toxicity in mouse xenografted with human MCF7 cells assessed as body weight loss at 30 mg/kg,po for 30 days daily; format: organism-based; conditions: in vivo, 720 h, time 30 day
[15] = Toxicity in mouse xenografted with human MCF7 cells assessed as morphological changes in heart at 30 mg/kg,po for 30 days daily by Hematoxylin and eosin staining based microscopy; format: organism-based; conditions: in vivo, 720 h, time 30 day
[16] = Toxicity in mouse xenografted with human MCF7 cells assessed as morphological changes in liver at 30 mg/kg,po for 30 days daily by Hematoxylin and eosin staining based microscopy; format: organism-based; conditions: in vivo, 720 h, time 30 day
[17] = Toxicity in mouse xenografted with human MCF7 cells assessed as morphological changes in spleen at 30 mg/kg,po for 30 days daily by Hematoxylin and eosin staining based microscopy; format: organism-based; conditions: in vivo, 720 h, time 30 day
[18] = Toxicity in mouse xenografted with human MCF7 cells assessed as morphological changes in kidney at 30 mg/kg,po for 30 days daily by Hematoxylin and eosin staining based microscopy; format: organism-based; conditions: in vivo, 720 h, time 30 day
MCF7 [19] = experiment: Antitumor activity against human MCF7 cells xenografted in nude mouse assessed as reduction in Ki67 expression at 30 mg/kg,po for 30 days daily by immunohistochemical analysis; format: functional, organism-based; conditions: time 30.0 day
Mus musculus [20] = experiment: In vivo ER degradation in mouse xenografted with human MCF7 cells assessed as reduction in ER expression level in tumor at 30 mg/kg,po for 30 days daily by […]; format: functional, organism-based; conditions: time 30.0 day
Mus musculus [21] = experiment: In vivo ER degradation in mouse xenografted with human MCF7 cells assessed as reduction in PR expression level in tumor at 30 mg/kg,po for 30 days daily by […]; format: functional, organism-based; conditions: time 30.0 day
[22] = Toxicity in Sprague-Dawley rat uterus assessed as change in uterine wet weight at 30 mg/kg, po for 2 days consecutively; format: organism-based; conditions: in vivo, 48 h, time 2 day
MCF7 [23] = experiment: Stabilization of ER in human MCF7 cells at 10 uM incubated for 24 hrs by Western blot analysis; format: cell-based
[24] = Plasma concentration in ICR mouse at 100 mg/kg, po and measured after 0.25 hrs by LC-MS analysis; format: ADME, organism-based
[25] = Plasma concentration in ICR mouse at 100 mg/kg, po and measured after 1 hrs by LC-MS analysis; format: ADME, organism-based

Compound | IC50 (MCF7 [1]) | Activity (MCF7 [2]) | inhibition at 20 µM (Ishikawa) | also measured
CC(C)c1ccccc1C(=O)c1sc2cc(F)ccc2c1Oc1ccc(/C=C/C(=O)O)cc1 | 320 nM | Active |  | inhibition (Ishikawa): inactive
O=C(O)/C=C/c1ccc(-c2ccc(Oc3c(C(=O)c4ccccc4)sc4cc(F)ccc34)cc2)cc1 | 9910 nM | Active | 8% | 
O=C(O)/C=C/c1ccc(Oc2c(C(=O)c3cccc4sccc34)sc3cc(F)ccc23)cc1 | 4280 nM | Active | 12% | 
O=C(O)/C=C/c1ccc(Oc2c(C(=O)c3ccc4ccccc4c3)sc3cc(F)ccc23)cc1 | 4740 nM | Active | 25% | 
O=C(O)/C=C/c1ccc(Oc2c(C(=O)c3cccc(F)c3)sc3cc(F)ccc23)cc1 | 5830 nM | Active | 9% | 
O=C(O)/C=C/c1ccc(Oc2c(C(=O)c3ccccc3)sc3cc(F)ccc23)cc1F | 1530 nM | Active |  | inhibition (Ishikawa): inactive
Cc1cc(Cl)cc(C)c1C(=O)c1sc2cc(F)ccc2c1Oc1ccc(/C=C/C(=O)O)cc1 | 560 nM | Active | 6% | 
Cc1cc(F)ccc1C(=O)c1sc2cc(F)ccc2c1Oc1ccc(/C=C/C(=O)O)cc1 | 360 nM | Active | 11% | 
CCNCCc1ccc(CN(CC)c2cc(OC)ccc2[C@@H]2CCc3cc(O)ccc3C2)cc1 [ELACESTRANT] |  |  |  | IC50 (MCF7 [3]): 4200 nM
COc1ccc(C(=O)c2sc3cc(F)ccc3c2Oc2ccc(/C=C/C(=O)O)cc2)cc1 | 340 nM | Active | 53% | 
Cc1cc(F)cc(C)c1C(=O)c1sc2cc(O)ccc2c1Oc1ccc(/C=C/C(=O)O)cc1 [RINTODESTRANT] |  |  |  | concentration at 0.5 h [4]: 4500 ng/mL
C[C@]12CC[C@@H]3c4ccc(O)cc4C[C@@H](CCCCCCCCC[S+]([O-])CCCC(F)(F)C(F)(F)F)[C@H]3[C@@H]1CC[C@@H]2O (some centres not stated) [FULVESTRANT] | 0.1 nM |  |  | inhibition (Ishikawa): inactive; Activity (MCF7 [5]): 62.28%; Activity (MCF7 [6]): Active
Cc1cccc(C)c1C(=O)c1sc2cc(F)ccc2c1Oc1ccc(/C=C/C(=O)O)cc1 | 280 nM | Active |  | inhibition (Ishikawa): inactive
Cc1ccc(C(=O)c2sc3cc(F)ccc3c2Oc2ccc(/C=C/C(=O)O)cc2)c(C)c1 | 200 nM | Active | 13% | Activity (MCF7 [7]): Dose-Dependent Effect; Activity (MCF7 [8]): Active; Activity (MCF7 [9]): Active; Activity (MCF7 [10]): Active; Activity (MCF7 [11]): Active; Activity (MCF7 [12]): Active; Activity (MCF7 [5]): 57.36%; Activity (MCF7 [13]): Active; Activity [14]: Non-Toxic; Activity [15]: Non-Toxic; Activity [16]: Non-Toxic; Activity [17]: Non-Toxic; Activity [18]: Non-Toxic; Activity (MCF7 [19]): Active; Activity (Mus musculus [20]): Active; Activity (Mus musculus [21]): Active; Activity [22]: Non-Toxic
O=C(O)/C=C/c1ccc(Oc2c(C(=O)c3ccc4ccncc4c3)sc3cc(F)ccc23)cc1 | > 20000 nM | Active | 36% | 
O=C(O)/C=C/c1ccc(Oc2c(C(=O)c3ccc4occc4c3)sc3cc(F)ccc23)cc1 | 1880 nM | Active | 12% | 
Cc1cc(Oc2c(C(=O)c3ccccc3)sc3cc(F)ccc23)ccc1/C=C/C(=O)O | 670 nM | Active | 19% | 
CC/C(=C(\c1ccccc1)c1ccc(OCCN(C)C)cc1)c1ccccc1 [TAMOXIFEN] | 2330 nM |  | 50% | Activity (MCF7 [23]): Active; Activity (MCF7 [5]): 67.34%; Activity (MCF7 [13]): Active; Activity [22]: Toxic
O=C(O)/C=C/c1ccc(Oc2c(C(=O)c3cccc4ccccc34)sc3cc(F)ccc23)cc1 | 8570 nM | Active | 8% | 
Cc1cc(C)cc(C(=O)c2sc3cc(F)ccc3c2Oc2ccc(/C=C/C(=O)O)cc2)c1 | 2590 nM | Active |  | inhibition (Ishikawa): inactive
O=C(O)/C=C/c1ccc(Oc2c(C(=O)c3ccc(OC(F)(F)F)cc3)sc3cc(F)ccc23)cc1 | 1440 nM | Active | 18% | 
O=C(O)/C=C/c1ccc(Oc2c(C(=O)c3ccccc3)sc3cc(F)ccc23)cc1 | 2120 nM | Active | 8% | concentration at 0.25 h [24]: 9860 ng/mL; concentration at 0.5 h [4]: 16000 ng/mL; concentration at 1 h [25]: 15600 ng/mL
Cc1cc(/C=C/C(=O)O)ccc1Oc1c(C(=O)c2ccccc2)sc2cc(F)ccc12 | 3790 nM | Active | 6% | 
CCc1ccccc1C(=O)c1sc2cc(F)ccc2c1Oc1ccc(/C=C/C(=O)O)cc1 | 370 nM | Active | 12% | 
